Laboratory results from US9192569B2, “Formulations for infusion of type B lantibiotics” (Novacta Biosystems Limited, priority 2010, dated 2015).

Key:
[1] = In vivo plasma half-life in mice; conditions: mouse, IV, 9.3 mL/Kg of 3.2 mg/mL solution of Example 1, LC-MS
Protocol: In vivo Plasma Half-life of Compounds of the Present Invention in Mice.
The in vivo half-life of Compound 1 in mice was determined by measurement of its plasma concentrations at various time points following IV dosing. 18 male CD-1 mice aged 7-9 weeks were dosed IV with a 9.3 mL/Kg dose of a 3.2 mg/mL solution of Example 1 in 15% hydroxyl-propyl-beta-cyclodextrin/4.4% glucose/1 mM potassium phosphate (pH=7.6). Plasma samples were obtained at 10, 20, 30, 60, 120 and 240 min post-dose, sampling from 3 animals at each time point. Concentrations of Compound 1 in plasma were determined by LC-MS quantification.

[2] = test system: Staphylococcus aureus methicillin resistant ATCC 33591; assay: Mouse bacteraemia model, second experiment, IV dosing; type: in vivo, mice; conditions: for number of deaths: 7 days, groups of 6; for survival of mice after 7 days: 1, 3, 5 and 10 mg/kg IV
Protocol: In a second experiment Groups of 6 male CD-1 (Crl.) derived mice weighing 24±2 g were used. Mice were inoculated intraperitoneally (IP) with an LD90-100 of Staphylococcus aureus methicillin resistant ATCC 33591 (1.35×10^8 CFU/mouse) in 0.5 mL of BHI broth containing 5% mucin. Example 1 was dissolved in 5% dextrose/1.5 mM potassium phosphate, pH 5.0 and doses of 1, 3, 5 and 10 mg/Kg were administered intravenously (IV) to test animals at 1 and 13 hour(s) after bacteria challenge. The dosing volume was 5 mL/Kg. Mortality was recorded once daily for 7 days.

[3] = test system: Methicillin Resistant Staphylococcus aureus (MRSA, ATCC 33591); assay: Neutropaenic mouse thigh infection model; type: in vivo, mice; conditions: for antimicrobial effect: 5, 10, 20, 30 and 40 mg/Kg x2 IV
Protocol: Efficacy of Compounds in a Neutropaenic Mouse Thigh Infection Model.
In vivo efficacy of compounds of the present invention in the treatment of bacterial tissue infections was evaluated using a neutropaenic mouse thigh model.
Groups of 6 male ICR mice weighing 24±2 g were used. Test animals were immuno-suppressed by 2 intraperitoneal injections of cyclophosphamide, the first at 150 mg/Kg 4 days before infection (day-4) and the second at 100 mg/Kg 1 day before infection (day−1). On day 0, individual animals were inoculated intramuscularly (IM) into the right thigh of test animals with 1.15×10^5 CFU/mouse of Methicillin Resistant Staphylococcus aureus (MRSA, ATCC 33591) suspended in 100 μL of sterile PBS, pH 7.4. Vehicle and test substances were administered intravenously (IV) at a dose volume of 6 mL/Kg, 2 and 14 hours after thigh infection. Example 1 and vancomycin were dissolved in 15% hydroxypropyl-beta-cyclodextrin/4.4% glucose/1.5 mM potassium phosphate buffer, pH 7.0 and administered at doses of 5, 10, 20, 30 and 40 mg/Kg. At 26 hours after inoculation, muscle of the right thigh of each test mouse was harvested. From an additional group with no treatment, muscle of the right thigh was harvested at 2 hours after inoculation for the basal CFU determination. The removed muscle tissues were then homogenized in 3-4 mL of PBS, pH 7.4 with a ceramic mortar. Homogenates of 0.1 mL were used for serial 10-fold dilutions and plated on Mueller Hinton broth in 1.5% Bacto agar for CFU determination.

[4] = test system: Methicillin Resistant Staphylococcus aureus (MRSA, ATCC 33591); assay: Neutropaenic mouse thigh infection model, further experiment; type: in vivo, mice; conditions: IV 2 and 14 h after infection; 2.5-50 mg/Kg; thigh at 26 h
Protocol: In a further experiment groups of 6 male ICR mice weighing 24±2 g were used. Test animals were immunosuppressed by 2 intraperitoneal injections of cyclophosphamide, the first at 150 mg/Kg 4 days before infection (day-4) and the second at 100 mg/Kg 1 day before infection (day-1). On day 0, individual animals were inoculated intramuscularly (IM) into the right thigh of test animals with 1.5×10^5 CFU/mouse of Methicillin Resistant Staphylococcus aureus (MRSA, ATCC 33591) suspended in 100 μL of sterile PBS, pH 7.4. Vehicle and test substances were administered intravenously (IV) at a dose volume of 8 mL/Kg, 2 and 14 hours after thigh infection. Example 1 was dissolved in 5% dextrose/1 mM potassium phosphate, pH 5.0 and administered at doses of 2.5, 5, 10, 15, 25 and 50 mg/Kg. At 26 hours after inoculation, muscle of the right thigh of each test mouse was harvested. From an additional group with no treatment, muscle of the right thigh was harvested at 2 hours after inoculation for the basal CFU determination. The removed muscle tissues were then homogenized in 3-4 mL of PBS, pH 7.4 with a ceramic mortar. Homogenates of 0.1 mL were used for serial 10-fold dilutions and plated on Mueller Hinton broth in 1.5% Bacto agar for CFU determination.

[5] = Laser beam light scattering through cuvette (FIG. 1); type: physicochemical; conditions: naked eye
From the text: FIG. 1 is a series of photographs of two control formulations (glucose and vancomycin) and a formulation of Example 1, after a laser beam has been shone through a cuvette containing the same. […] In each case the presence or absence of the beam in the samples is clearly visible to the naked eye.
The colloid formulation according to the present invention is distinguished from a solution by the fact that a polarised beam of light, such as from laser, shone through the formulation, for example held in a 1 cm cuvette, causes the formulation to scatter light visible to the naked eye therefrom, for example in the form of a beam. Whilst not wishing to be bound by theory, this luminous path may be known as a Tyndall beam or Rayleigh scatter, both of which are a result of the scattering of the light by the particles in the colloid.

[6] = test system: Staphylococcus aureus methicillin resistant ATCC 33591; assay: Mouse bacteraemia model, SC dosing; type: in vivo, mice
Protocol: In Vivo Efficacy of Compounds in a Mouse Bacteraemia Model
Groups of 6 male CD-1 (Crl.) derived mice weighing 24±2 g were used. Mice were inoculated intraperitoneally (IP) with an LD90-100 of Staphylococcus aureus methicillin resistant ATCC 33591 (1.1×10^7CFU/mouse) in 0.5 mL of BHI broth containing 5% mucin. Example 1 and vancomycin were dissolved in 15% HPbetaCD/4.4% glucose/0.5 mM KH2PO4, pH 5.0 and doses of 1, 3, 5, 10 and 20 mg/Kg were administered subcutaneously (SC) to test animals at 0, 2 and 24 hour(s) after bacteria challenge. The dosing volume was 5 mL/Kg. Mortality was recorded once daily for 7 days. The ED50 for each compound was determined by nonlinear regression.

Row | Molecule | half-life [1] [min] | number of deaths ([2]; 1 mg/kg IV at 1 and 13 h) | number of deaths ([2]; 3 mg/kg IV at 1 and 13 h) | number of deaths ([2]; 5 mg/kg IV at 1 and 13 h) | number of deaths ([2]; 10 mg/kg IV at 1 and 13 h) | survival of mice after 7 days [2] | reduction in CFU/g ([3]; 10 mg/kg and above, x2 IV, thigh at 26 h) [fold] | antimicrobial effect [3] | bacterial counts in the thigh tissue (FIG. 3) [4] | visibility of laser beam through formulation (light scattering) [5] | survival rate ([6]; 3 mg/Kg, SC) [%] | antimicrobial effect against S. aureus (MRSA) in mice ([6]; 3, 5, 10 and 20 mg/Kg x3, SC) | increase in survival rate ([6]; 3, 5, 10 and 20 mg/Kg x3, SC) | estimated ED50 ([6]; SC at 0, 2 and 24 h after challenge, mortality over 7 days, nonlinear regression) [mg/kg] | reductions of CFU/g ([3]; 30 mg/kg and above, x2 IV, thigh at 26 h) [fold] | reduction of CFU/g, highest attained ([3]; doses 5-40 mg/Kg x2 IV, thigh at 26 h) | ED50 ([6]; Staphylococcus aureus, ATCC33591, SC at 0, 2 and 24 h after challenge, mortality over 7 days, nonlinear regression, read-out: estimated ED50) [mg/kg]
1 | CC[C@H](C)[C@@H]1NC(=O)[C@@H]2NC(=O)[C@H](CC(C)C)NC(=O)[C@H](NC(=O)[C@@H]3CSC[C@@H](N)C(=O)N[C@@H](CO)C(=O)NCC(=O)N[C@@H](Cc4c[nH]c5ccccc45)C(=O)N[C@@H](C(C)C)C(=O)N3)[C@H](C)SC[C@H](NC(=O)[C@H](CCC(=O)O)NC1=O)C(=O)NCC(=O)N[C@H]1C(=O)N[C@@H](CC(C)C)C(=O)N[C@@H](C(C)C)C(=O)N[C@@H](CS[C@H]2C)C(=O)N[C@@H](C)C(=O)N[C@H](C(=O)NCc2cc(Cl)cc(Cl)c2)CS[C@H]1C [Compound 1, Deoxyactagardine B (3,5-dichlorobenzylamine)monocarboxamide] | ~120 | – | – | – | – | – | – | – | – | – | – | – | – | – | – | – | –
2 | Deoxyactagardine B (3,5-dichlorobenzylamine)monocarboxamide [Example 1] | – | 5 | 4 | 1 | 1 | dose-dependent increase in survival | > 1.000 | significant antimicrobial effect | dose dependent reduction in the bacterial counts | the beam is visible | 100 | significant antimicrobial effect | at least 50% | 1.07 | – | – | –
3 | CN[C@H](CC(C)C)C(=O)N[C@H]1C(=O)N[C@@H](CC(N)=O)C(=O)N[C@H]2C(=O)N[C@H]3C(=O)N[C@H](C(=O)N[C@H](C(=O)O)c4cc(O)cc(O)c4-c4cc3ccc4O)[C@H](O)c3ccc(c(Cl)c3)Oc3cc2cc(c3O[C@@H]2O[C@H](CO)[C@@H](O)[C@H](O)[C@H]2O[C@H]2C[C@](C)(N)[C@H](O)[C@H](C)O2)Oc2ccc(cc2Cl)[C@H]1O [vancomycin, reference compound] | – | 5 | 3 | 1 | 0 | dose-dependent increase in survival | – | significant antimicrobial effect | dose dependent reduction in the bacterial counts | the beam is not visible | – | significant antimicrobial effect | – | – | > 100 | ≤ 1,000 fold | 3
